According to the Kinase Knowledgebase extract (Sharma et al. 2016):

Target: EGFR (UniProt P00533)
Settings: for inhibition: concentration not given here

EGFR, sequence (P00533 whole entry, looked up): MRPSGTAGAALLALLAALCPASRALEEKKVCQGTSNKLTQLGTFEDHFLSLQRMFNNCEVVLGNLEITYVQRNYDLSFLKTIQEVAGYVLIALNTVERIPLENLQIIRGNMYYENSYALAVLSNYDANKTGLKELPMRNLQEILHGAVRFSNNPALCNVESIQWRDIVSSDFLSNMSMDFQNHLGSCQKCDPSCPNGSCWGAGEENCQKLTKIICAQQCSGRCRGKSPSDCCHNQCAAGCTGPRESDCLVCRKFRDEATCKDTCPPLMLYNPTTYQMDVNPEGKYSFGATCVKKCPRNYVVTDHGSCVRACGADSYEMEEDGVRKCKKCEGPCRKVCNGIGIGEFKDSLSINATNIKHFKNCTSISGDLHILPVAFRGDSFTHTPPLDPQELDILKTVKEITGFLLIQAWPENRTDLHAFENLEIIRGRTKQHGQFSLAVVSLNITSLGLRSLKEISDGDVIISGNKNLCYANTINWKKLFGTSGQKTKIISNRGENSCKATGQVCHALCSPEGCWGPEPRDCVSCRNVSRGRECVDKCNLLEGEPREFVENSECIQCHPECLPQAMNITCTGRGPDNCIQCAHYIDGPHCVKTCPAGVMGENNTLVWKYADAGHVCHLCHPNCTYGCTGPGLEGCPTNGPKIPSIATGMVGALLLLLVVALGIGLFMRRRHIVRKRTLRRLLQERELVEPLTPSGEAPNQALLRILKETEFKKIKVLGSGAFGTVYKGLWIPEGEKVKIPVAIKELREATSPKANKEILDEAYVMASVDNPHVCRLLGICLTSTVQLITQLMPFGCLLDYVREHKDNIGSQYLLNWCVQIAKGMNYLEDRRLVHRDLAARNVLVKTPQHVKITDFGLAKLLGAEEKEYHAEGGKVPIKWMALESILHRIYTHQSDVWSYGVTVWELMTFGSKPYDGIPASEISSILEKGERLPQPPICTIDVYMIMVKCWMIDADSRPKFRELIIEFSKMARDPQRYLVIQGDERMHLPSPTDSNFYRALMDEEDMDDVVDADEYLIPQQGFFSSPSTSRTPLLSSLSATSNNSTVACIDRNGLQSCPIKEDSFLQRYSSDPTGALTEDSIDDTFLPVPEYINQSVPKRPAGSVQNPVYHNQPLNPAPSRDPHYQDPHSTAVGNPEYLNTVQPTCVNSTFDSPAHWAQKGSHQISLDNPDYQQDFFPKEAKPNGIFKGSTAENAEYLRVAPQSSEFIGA

inhibition	IC50	SMILES
0%		O=c1ccc2cc(O)c(O)cc2o1
0%		O=c1ccc2ccc(O)cc2o1

The remaining lines, values behind:

SMILES	inhibition	IC50
O=c1ccc2ccccc2o1	0%	
O=c1ccc2ccc(O)c(O)c2o1	99.6%	7.67 µM
O=c1cc(O)c2ccccc2o1	0%	
OC1C=Cc2ccccc2O1 (configuration not stated)	0%	
